Test results as given in ChEMBL document CHEMBL1201862, “PubChem BioAssay data set” (2004).
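Values below derive from 48-hour exposures of cells grown in 96-well plates, with endpoints linearly interpolated between the two concentrations bracketing the appropriate inhibition level. Abbreviation: GI50, concentration required for 50% inhibition of growth.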 Calls of active or inactive are those of the source. Rule as the data show it: active = GI50 up to about 1.1 µM and inactive = higher.

Key:
Assay in all cases: DTP human tumour cell line panel, 48 h
786-0 = system: 786-0
A498 = system: A498
A549 = system: A549
ACHN = system: ACHN
CCRF-CEM = system: CCRF-CEM
COLO 205 = system: COLO 205
DLD-1 = system: DLD-1
DMS-114 = system: DMS-114
DMS-273 = system: DMS-273
EKVX = system: EKVX
HCC 2998 = system: HCC 2998
HCT-15 = system: HCT-15
HL-60 = system: HL-60
HOP-18 = system: HOP-18
HT-29 = system: HT-29
IGROV-1 = system: IGROV-1
K562 = system: K562
KM12 = system: KM12
LOX IMVI = system: LOX IMVI
LXFL 529 = system: LXFL 529
M14 = system: M14
M19-MEL = system: M19-MEL
MOLT-4 = system: MOLT-4
Malme-3M = system: Malme-3M
NCI-H226 = system: NCI-H226
NCI-H23 = system: NCI-H23
NCI-H460 = system: NCI-H460
OVCAR-3 = system: OVCAR-3
OVCAR-4 = system: OVCAR-4
OVCAR-5 = system: OVCAR-5
OVCAR-8 = system: OVCAR-8
RPMI-8226 = system: RPMI-8226
RXF 393 = system: RXF 393
SF-268 = system: SF-268
SF-295 = system: SF-295
SF-539 = system: SF-539
SK-MEL-28 = system: SK-MEL-28
SK-MEL-5 = system: SK-MEL-5
SK-OV-3 = system: SK-OV-3
SN12C = system: SN12C
SNB-19 = system: SNB-19
SNB-75 = system: SNB-75
SNB-78 = system: SNB-78
SR = system: SR
SW-620 = system: SW-620
TK-10 = system: TK-10
U-251 = system: U-251
UACC-62 = system: UACC-62
UO-31 = system: UO-31
XF498 = system: XF498
HCT-116 = system: HCT-116
HOP-62 = system: HOP-62
KM-20L2 = system: KM-20L2
NCI-H522 = system: NCI-H522
SK-MEL-2 = system: SK-MEL-2
UACC-257 = system: UACC-257

Measured: GI50

CC(C)(C)C1CCC2c3c([nH]c4ccccc34)C3C(=O)N(c4ccccc4)C(=O)C3C2C1 (stereo not given)
inactive: 786-0 7.14 µM | A498 2.5 µM | A549 10.8 µM | ACHN 4.94 µM | CCRF-CEM 2.77 µM | COLO 205 4.35 µM | DLD-1 20.4 µM | DMS-114 6.15 µM | DMS-273 3.34 µM | EKVX 14.9 µM | HCC 2998 9.53 µM | HL-60 12.8 µM | HOP-18 4.76 µM | HT-29 8.93 µM | IGROV-1 11.1 µM | K562 4.36 µM | KM12 21.4 µM | LOX IMVI 3.79 µM | LXFL 529 11.3 µM | M14 4.43 µM | M19-MEL 7.66 µM | MOLT-4 3.31 µM | Malme-3M 2.4 µM | NCI-H226 5.82 µM | NCI-H23 12 µM | NCI-H460 3.7 µM | OVCAR-3 4.01 µM | OVCAR-4 1.86 µM | OVCAR-5 > 100 µM | OVCAR-8 4.84 µM | RPMI-8226 7.78 µM | RXF 393 3.81 µM | SF-268 13.6 µM | SF-295 4.86 µM | SF-539 8.97 µM | SK-MEL-28 4.97 µM | SK-MEL-5 > 10 µM | SK-OV-3 2.15 µM | SN12C 5.3 µM | SNB-19 6.59 µM | SNB-75 2.85 µM | SNB-78 5.5 µM | SR 6.27 µM | SW-620 8.34 µM | TK-10 3.71 µM | U-251 3.1 µM | UACC-62 20.9 µM | UO-31 2.62 µM
active: XF498 0.389 µM
22.8 µM: HCT-15

C/C=C1\C=C(OC)CN(CCc2c[nH]c3ccccc23)C1
inactive: 786-0 59 µM | A498 44 µM | A549 80.7 µM | ACHN > 100 µM | CCRF-CEM > 100 µM | COLO 205 34.3 µM | DLD-1 > 100 µM | DMS-114 43.4 µM | DMS-273 49.7 µM | EKVX 60.7 µM | HCC 2998 18 µM | HCT-116 36.4 µM | HL-60 61 µM | HOP-18 > 10 µM | HOP-62 73.5 µM | HT-29 25.4 µM | IGROV-1 > 100 µM | K562 72.3 µM | KM-20L2 37.6 µM | KM12 52.2 µM | LOX IMVI 23.2 µM | LXFL 529 9.4 µM | M14 27.7 µM | M19-MEL 79.8 µM | MOLT-4 > 100 µM | Malme-3M 22.5 µM | NCI-H226 27.2 µM | NCI-H23 > 100 µM | NCI-H460 26 µM | NCI-H522 46 µM | OVCAR-3 53.5 µM | OVCAR-4 39.5 µM | OVCAR-8 > 100 µM | RPMI-8226 73.8 µM | SF-268 19 µM | SF-295 27.9 µM | SF-539 > 100 µM | SK-MEL-2 43.3 µM | SK-MEL-5 20.2 µM | SN12C 59.6 µM | SNB-19 > 100 µM | SNB-75 38.9 µM | SR 61.8 µM | SW-620 70.3 µM | TK-10 > 100 µM | UACC-257 48.4 µM | UACC-62 41.3 µM | UO-31 75 µM | XF498 32.9 µM
56.6 µM: HCT-15
